Some test systems named below: SF-295; OVCAR-3; HT-29; COLO 205; HL-60; SF-539; IGROV-1; Malme-3M; HCT-116; UO-31; SR; A549; 786-0; M14; CAKI-1; UACC-62; OVCAR-5; SNB-19; KM12; LOX IMVI.
Experiment in all cases: NCI tumour cell line growth inhibition, 48 h

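How tested: cells in 96-well plates exposed to compound for 48 hours at five concentrations. GI50 marks 50% less growth.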 Activity calls are given as the source filed them. No stated cut-off is given here; in the data, active = GI50 up to about 1.1 µM and inactive = higher. A value given as a limit tells only on which side of the number the result lay.

Consider `C[n+]1c2ccccc2c(NCC(=O)O)c2ccccc21`, for which the GI50 with SF-295, in the assay with OVCAR-3, in the assay with HT-29, in the assay on COLO 205, with HL-60 and with SF-539 was > 100 µM (inactive) each time. The GI50 in the assay on IGROV-1 was > 100 µM (inactive); in the assay on Malme-3M it was > 100 µM (inactive); in the assay with HCT-116 it was 86.7 µM (inactive); with UO-31, > 100 µM (inactive); with SR it was > 100 µM (inactive); with A549, > 100 µM (inactive). Further, the GI50 in the assay on 786-0, with M14, in the assay on CAKI-1, in the assay on UACC-62, in the assay on OVCAR-5 and with SNB-19 was > 100 µM (inactive) each time. The GI50 in the assay with KM12 is > 100 µM (inactive).

On to `O=C1N=CN=C2C=CC(Cl)=C(I)C12` (stereo not drawn), for which the GI50 was > 100 µM (inactive) with SF-295; 56.1 µM (inactive) in the assay on LOX IMVI; 63 µM (inactive) with OVCAR-3; > 100 µM (inactive) in the assay on HT-29; > 100 µM (inactive) in the assay on COLO 205; 93.5 µM (inactive) in the assay on HL-60. In addition, the GI50 was 33.3 µM (inactive) in the assay with IGROV-1; > 100 µM (inactive) with Malme-3M; 42.5 µM (inactive) with HCT-116; 26.2 µM (inactive) in the assay on UO-31; 91.8 µM (inactive) with SR; > 100 µM (inactive) in the assay on A549. Besides, the GI50 is > 100 µM (inactive) in the assay with 786-0; > 100 µM (inactive) with M14; 24.3 µM (inactive) with CAKI-1; 45.3 µM (inactive) with UACC-62; > 100 µM (inactive) in the assay with OVCAR-5; 47.9 µM (inactive) in the assay with SNB-19. Further, the GI50 in the assay on KM12 is > 100 µM (inactive).

On to `O=S(=O)(O)c1cc(/N=N/c2c(O)ccc3ccccc23)cc2c(S(=O)(=O)O)cccc12`, for which the GI50 in the assay with SF-295, in the assay on OVCAR-3, in the assay on HT-29, in the assay on COLO 205, in the assay with HL-60 and in the assay with SF-539 was > 100 µM (inactive) throughout. Also, the GI50 with IGROV-1 is > 100 µM (inactive); in the assay with Malme-3M it was 33.7 µM (inactive); in the assay on HCT-116 it was > 100 µM (inactive); in the assay on UO-31, > 100 µM (inactive); with SR, > 100 µM (inactive); in the assay with A549 it was > 100 µM (inactive). Moreover, the GI50 in the assay with 786-0, in the assay on M14, in the assay with CAKI-1, with UACC-62, with OVCAR-5 and with SNB-19 was > 100 µM (inactive) each time. Besides, the GI50 in the assay on KM12 is > 100 µM (inactive).

Regarding `CCOP(C)(=O)C(Cc1c[nH]c2ccccc12)C(=O)O` (stereo not drawn), the GI50 in the assay on SF-295, in the assay on OVCAR-3, in the assay with HT-29, with COLO 205, in the assay on HL-60 and in the assay on SF-539 was > 100 µM (inactive) throughout. Further, the GI50 in the assay with IGROV-1, with Malme-3M, with HCT-116, in the assay on UO-31, in the assay with SR and in the assay on A549 was > 100 µM (inactive) throughout. Moreover, the GI50 with 786-0, in the assay on M14, with CAKI-1, with UACC-62, with OVCAR-5 and in the assay on SNB-19 was > 100 µM (inactive) throughout. Besides, the GI50 in the assay with KM12 was > 100 µM (inactive).

For the compound `O=C(Cc1nc2ccccc2s1)C(=O)Nc1cccc(C(F)(F)F)c1`, the GI50 in the assay with SF-295, in the assay on OVCAR-3, in the assay with HT-29, in the assay with COLO 205, in the assay on HL-60 and with SF-539 was > 100 µM (inactive) in each case. For the same compound, the GI50 with IGROV-1, in the assay on Malme-3M, in the assay on HCT-116, in the assay on UO-31, in the assay with SR and with A549 was > 100 µM (inactive) throughout. Also, the GI50 with 786-0, with M14, in the assay with CAKI-1, with UACC-62, in the assay with SNB-19 and in the assay with KM12 was > 100 µM (inactive) throughout.

With `CCOC(=O)C1(C#N)C(c2ccccc2)CC(O)(c2ccc(Cl)cc2)C(C(=O)c2ccc(Cl)cc2)C1c1ccccc1` (stereo not drawn), the GI50 was 41 µM (inactive) in the assay on SF-295; > 100 µM (inactive) with LOX IMVI; > 100 µM (inactive) in the assay with OVCAR-3; > 100 µM (inactive) in the assay with HT-29; > 100 µM (inactive) with COLO 205; > 100 µM (inactive) with HL-60. In addition, the GI50 in the assay on IGROV-1, in the assay on Malme-3M, in the assay on HCT-116, in the assay with UO-31, in the assay on SR and with A549 was > 100 µM (inactive) in each case. Besides, the GI50 in the assay with 786-0 is > 100 µM (inactive); with M14, > 100 µM (inactive); in the assay with CAKI-1 it was > 100 µM (inactive); in the assay on UACC-62, > 100 µM (inactive); with OVCAR-5, > 100 µM (inactive); with SNB-19, 34 µM (inactive). For the same compound, the GI50 in the assay with KM12 is 34 µM (inactive).

For the compound `O=C(CC1C(=O)Nc2ccccc2[S+]1[O-])Nc1ccccc1` (stereo not drawn), the GI50 is > 100 µM (inactive) in the assay with SF-295; > 100 µM (inactive) with OVCAR-3; > 100 µM (inactive) in the assay with HT-29; > 100 µM (inactive) with COLO 205; > 100 µM (inactive) with HL-60; 52.7 µM (inactive) in the assay with SF-539. Moreover, the GI50 in the assay on IGROV-1 was > 100 µM (inactive); in the assay on Malme-3M it was > 100 µM (inactive); in the assay with HCT-116, > 100 µM (inactive); with UO-31 it was 37.5 µM (inactive); in the assay with SR, 17.2 µM (inactive); in the assay on A549 it was > 100 µM (inactive). Besides, the GI50 is 40.8 µM (inactive) in the assay on 786-0; > 100 µM (inactive) in the assay with M14; > 100 µM (inactive) in the assay with CAKI-1; > 100 µM (inactive) with UACC-62; > 100 µM (inactive) in the assay on OVCAR-5; > 100 µM (inactive) in the assay with SNB-19. Besides, the GI50 in the assay on KM12 was > 100 µM (inactive).

For `COc1ccc(C2=C(OC(C)=O)c3cccn3-c3ccccc3S2)cc1`, the GI50 in the assay on SF-295 was 1.45 µM (inactive); in the assay with LOX IMVI it was 4.55 µM (inactive); in the assay on HT-29, 2.19 µM (inactive); with COLO 205, 2.7 µM (inactive); with HL-60, 0.512 µM (active); in the assay on IGROV-1, 4.81 µM (inactive). Further, the GI50 is 2.7 µM (inactive) in the assay with Malme-3M; 3.36 µM (inactive) in the assay on SR; 7.53 µM (inactive) in the assay with A549; 2.46 µM (inactive) in the assay on 786-0; 5.68 µM (inactive) in the assay on M14; 4.55 µM (inactive) in the assay with CAKI-1. The GI50 is 2.9 µM (inactive) in the assay with UACC-62 and 2.62 µM (inactive) in the assay on KM12.

With `O=C(c1ccccc1)c1c(CC(O)c2ccccc2)n(C(=O)c2ccccc2)c2ccccc12` (stereo not drawn), the GI50 was 28.8 µM (inactive) in the assay with SF-295; 28.8 µM (inactive) in the assay with OVCAR-3; 63.8 µM (inactive) in the assay with HT-29; 47.6 µM (inactive) in the assay with COLO 205; 31.3 µM (inactive) in the assay with HL-60; 34.2 µM (inactive) in the assay on SF-539. The GI50 with IGROV-1 is 42.6 µM (inactive); in the assay on Malme-3M, 56.2 µM (inactive); in the assay with HCT-116, 23.1 µM (inactive); in the assay on UO-31, 19.9 µM (inactive); with SR, 16.9 µM (inactive); with A549, 31.6 µM (inactive). In addition, the GI50 in the assay on 786-0 is > 100 µM (inactive); in the assay on M14 it was 33 µM (inactive); with CAKI-1, 55.7 µM (inactive); with UACC-62, 46.3 µM (inactive); with OVCAR-5 it was > 100 µM (inactive); with SNB-19, 36.4 µM (inactive). In addition, the GI50 with KM12 is 32 µM (inactive).

With `O=S(=O)(N/N=C1\CC2CCC1C2)c1ccccc1` (stereo not drawn), the GI50 with SF-295, in the assay on LOX IMVI, in the assay on OVCAR-3, in the assay with HT-29, in the assay on COLO 205 and in the assay with HL-60 was > 100 µM (inactive) throughout. The GI50 in the assay on IGROV-1, with Malme-3M, in the assay on HCT-116, in the assay on UO-31, in the assay with SR and in the assay on A549 was > 100 µM (inactive) throughout. Besides, the GI50 in the assay on 786-0, with M14, with CAKI-1, with UACC-62, in the assay with OVCAR-5 and with SNB-19 was > 100 µM (inactive) throughout. Also, the GI50 in the assay with KM12 is > 100 µM (inactive).

Take `O=C1C(Cl)C(c2ccccc2Cl)N1n1cnc2ccccc2c1=O` (stereo not drawn): the GI50 in the assay on SF-295 was 29.4 µM (inactive); in the assay on LOX IMVI, 19.6 µM (inactive); with OVCAR-3, > 100 µM (inactive); in the assay on HT-29 it was > 100 µM (inactive); in the assay with COLO 205, > 100 µM (inactive); in the assay with HL-60, 8.69 µM (inactive). Further, the GI50 was 80.4 µM (inactive) in the assay on IGROV-1; > 100 µM (inactive) with Malme-3M; 36.1 µM (inactive) in the assay on HCT-116; 7.52 µM (inactive) in the assay on UO-31; 5.13 µM (inactive) with SR; > 100 µM (inactive) with A549. Besides, the GI50 with 786-0 was 75.7 µM (inactive); with M14, 94 µM (inactive); in the assay on CAKI-1, 47.6 µM (inactive); in the assay on UACC-62 it was 21.6 µM (inactive); in the assay with OVCAR-5, > 100 µM (inactive); in the assay on SNB-19, 22.5 µM (inactive). Moreover, the GI50 with KM12 was > 100 µM (inactive).

(Values after ChEMBL document CHEMBL1201862, “PubChem BioAssay data set” (2004).)
